Data reported in patent US20260176267A1, “PREPARATION OF IMIDAZOPYRIDINE AND IMIDAZOPYRIDAZINE DERIVATIVES AS NOVEL DIACYLGLYCERIDE O-ACYLTRANSFERASE 2 INHIBITORS” (Merck Sharp & Dohme LLC, priority 2022, published 2026).

Each molecule was assayed against T1, human DGAT2 (hDGAT2) (Homo sapiens, UniProt Q96PD7) (assay: DGAT2 Enzymatic Activity Assay). Conditions: membrane prep of Sf-9 cells expressing hDGAT2; 13C18-triolein product by LC/MS/MS; 25 μM diolein, 5 μM 13C oleoyl-CoA, rt.
T1 construct: made in house; host or cells: Sf-9 insect cells (baculovirus), membrane fraction
T1 sequence (Q96PD7 1-388): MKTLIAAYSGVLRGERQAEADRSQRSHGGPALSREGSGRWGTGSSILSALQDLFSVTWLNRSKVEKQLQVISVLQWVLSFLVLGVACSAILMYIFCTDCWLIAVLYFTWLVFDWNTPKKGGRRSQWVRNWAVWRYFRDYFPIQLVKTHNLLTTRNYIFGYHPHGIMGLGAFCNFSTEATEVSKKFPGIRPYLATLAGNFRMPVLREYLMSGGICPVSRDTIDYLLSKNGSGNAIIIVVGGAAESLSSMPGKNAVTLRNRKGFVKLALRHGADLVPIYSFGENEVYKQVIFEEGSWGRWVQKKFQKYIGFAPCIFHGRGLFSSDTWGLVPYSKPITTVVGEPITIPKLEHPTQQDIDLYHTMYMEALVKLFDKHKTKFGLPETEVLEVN
Assay type: biochemical
Procedure, shortened: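 Membranes from Sf-9 cells expressing untagged human DGAT2 (baculovirus, 48 h) used as enzyme at rt. The product ^13C18-triolein is quantified by LC/MS/MS against a ^13C21-triolein internal standard. Percent inhibition is taken from high and low controls, and IC50 is derived.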

Row | SMILES | IC50
1 | Cc1c(C(=O)NC2(C)CS(=O)(=O)C2)nc2ccc(Oc3ncc(F)cc3OCC(F)F)cn12 [Example 74, 6-[[3-(2,2-difluoroethoxy)-5-fluoro-2-pyridyl]oxy]-3-methyl-N-(3-methyl-1,1-dioxo-thietan-3-yl)imidazo[1,2-a]pyridine-2-carboxamide] | 6.7 nM
2 | Cc1c(C(=O)NC2(C)CCS(=O)(=O)CC2)nc2ccc(Oc3ncc(C(C)C)cc3OCC(F)(F)F)cn12 [Example 75, 6-[[5-isopropyl-3-(2,2,2-trifluoroethoxy)-2-pyridyl]oxy]-3-methyl-N-(4-methyl-1,1-dioxo-thian-4-yl)imidazo[1,2-a]pyridine-2-carboxamide] | 6.6 nM
3 | CCC1(NC(=O)c2nc3ccc(Oc4ncc(F)cc4OCC(F)(F)F)cn3c2C)CCS(=O)(=O)CC1 [Example 77, N-(4-ethyl-1,1-dioxo-thian-4-yl)-6-[[5-fluoro-3-(2,2,2-trifluoroethoxy)-2-pyridyl]oxy]-3-methyl-imidazo[1,2-a]pyridine-2-carboxamide] | 33 nM
4 | CCc1cnc(Oc2ccc3nc(C(=O)NC4(C)CS(=O)(=O)C4)c(C)n3c2)c(OCC(F)(F)F)c1 [Example 79, 6-[[5-ethyl-3-(2,2,2-trifluoroethoxy)-2-pyridyl]oxy]-3-methyl-N-(3-methyl-1,1-dioxo-thietan-3-yl)imidazo[1,2-a]pyridine-2-carboxamide] | 6.8 nM
5 | Cc1c(C(=O)NC2(C)CCS(=O)(=O)CC2)nc2ccc(Oc3nccnc3OCC(F)(F)F)cn12 [Example 82, 3-methyl-N-(4-methyl-1,1-dioxo-thian-4-yl)-6-[3-(2,2,2-trifluoroethoxy)pyrazin-2-yl]oxy-imidazo[1,2-a]pyridine-2-carboxamide] | 9.1 nM

Now those with a lower IC50, led by results:

Row | IC50 | SMILES
6 | 1.4 nM | Cc1c(C(=O)NC2(C)CCS(=O)(=O)CC2)nc2ccc(Oc3ncc(Cl)cc3OCC(F)F)cn12 [Example 71, 6-[[5-chloro-3-(2,2-difluoroethoxy)-2-pyridyl]oxy]-3-methyl-N-(4-methyl-1,1-dioxo-thian-4-yl)imidazo[1,2-a]pyridine-2-carboxamide]
7 | 2.6 nM | Cc1c(C(=O)NC2(C)CCS(=O)(=O)CC2)nc2ccc(Oc3ncc(F)cc3OCC(F)F)cn12 [Example 73, 6-[[3-(2,2-difluoroethoxy)-5-fluoro-2-pyridyl]oxy]-3-methyl-N-(4-methyl-1,1-dioxo-thian-4-yl)imidazo[1,2-a]pyridine-2-carboxamide]
8 | 1.2 nM | Cc1c(C(=O)NC2(CC#N)CCS(=O)(=O)CC2)nc2ccc(Oc3ncc(Cl)cc3OCC(F)F)cn12 [Example 76, 6-[[5-chloro-3-(2,2-difluoroethoxy)-2-pyridyl]oxy]-N-[4-(cyanomethyl)-1,1-dioxo-thian-4-yl]-3-methyl-imidazo[1,2-a]pyridine-2-carboxamide]
9 | 3 nM | Cc1cnc(Oc2ccc3nc(C(=O)NC4(C)CCS(=O)(=O)CC4)c(C)n3c2)c(OCC(F)(F)F)n1 [Example 78, 3-methyl-N-(4-methyl-1,1-dioxo-thian-4-yl)-6-[5-methyl-3-(2,2,2-trifluoroethoxy)pyrazin-2-yl]oxy-imidazo[1,2-a]pyridine-2-carboxamide]
10 | 3.8 nM | Cc1c(C(=O)NC2CS(=O)(=O)C2(C)C)nc2ccc(Oc3ncc(Cl)cc3OCC(F)F)cn12 (centres unmarked) [Example 80, 6-[[5-chloro-3-(2,2-difluoroethoxy)-2-pyridyl]oxy]-N-(2,2-dimethyl-1,1-dioxo-thietan-3-yl)-3-methyl-imidazo[1,2-a]pyridine-2-carboxamide]
11 | 3.5 nM | Cc1c(C(=O)NC2(C)CCS(=O)(=O)CC2)nc2ccc(Oc3ncc(Cl)cc3OCC3(F)CC3)cn12 [Example 81, 6-[[5-chloro-3-[(1-fluorocyclopropyl)methoxy]-2-pyridyl]oxy]-3-methyl-N-(4-methyl-1,1-dioxo-thian-4-yl)imidazo[1,2-a]pyridine-2-carboxamide]
